Assay results as given in ChEMBL document CHEMBL5335843, “Application of tobramycin benzyl ether as an antibiotic adjuvant capable of sensitizing multidrug-resistant Gram-negative bacteria to rifampicin” (2024).
Activity calls are given as the source filed them. The rule behind the calls is not given here.

Columns and labels:
Acinetobacter baumannii [1] = experiment: Antibiotic adjuvant activity against multi-drug resistant Acinetobacter baumannii clinical isolate AB027 assessed as fractional inhibitory concentration index incubated for 18 hrs in presence of Rifampicin by two fold broth microdilution checkerboard assay; format: functional
Pseudomonas aeruginosa [2] = experiment: Antibiotic adjuvant activity against multi-drug resistant Pseudomonas aeruginosa clinical isolate PA114228 assessed as fold potentiation incubated for 18 hrs in presence of doxycycline by two fold broth microdilution checkerboard assay; format: functional
Pseudomonas aeruginosa [3] = experiment: Antibiotic adjuvant activity against multi-drug resistant Pseudomonas aeruginosa clinical isolate PA114228 assessed as inhibition of bacterial growth incubated for 18 hrs in presence of doxycycline by two fold broth microdilution checkerboard assay; format: functional
Escherichia coli [4] = experiment: Antibacterial activity against multi-drug resistant Escherichia coli clinical isolate 94474 assessed as inhibition of bacterial growth incubated for 18 hrs by two fold broth microdilution assay; format: functional
Pseudomonas aeruginosa [5] = experiment: Antibiotic adjuvant activity against multi-drug resistant Pseudomonas aeruginosa clinical isolate PA262 assessed as fold potentiation incubated for 18 hrs in presence of minocycline by two fold broth microdilution checkerboard assay; format: functional
Acinetobacter baumannii [6] = experiment: Antibiotic adjuvant activity against multi-drug resistant Acinetobacter baumannii clinical isolate AB027 assessed as rifampicin MIC incubated for 18 hrs in presence of Rifampicin by two fold broth microdilution checkerboard assay; format: functional
Pseudomonas aeruginosa [7] = experiment: Antibiotic adjuvant activity against multi-drug resistant Pseudomonas aeruginosa clinical isolate PA259 assessed as fold potentiation incubated for 18 hrs in presence of minocycline by two fold broth microdilution checkerboard assay; format: functional
Pseudomonas aeruginosa [8] = experiment: Antibiotic adjuvant activity against multi-drug resistant Pseudomonas aeruginosa clinical isolate PA114228 assessed as inhibition of bacterial growth incubated for 18 hrs in presence of minocycline by two fold broth microdilution checkerboard assay; format: functional
Pseudomonas aeruginosa [9] = experiment: Antibiotic adjuvant activity against multi-drug resistant Pseudomonas aeruginosa clinical isolate PA114228 assessed as fold potentiation incubated for 18 hrs in presence of minocycline by two fold broth microdilution checkerboard assay; format: functional
Pseudomonas aeruginosa [10] = experiment: Antibiotic adjuvant activity against Pseudomonas aeruginosa PAO1 assessed as fold potentiation incubated for 18 hrs in presence of rifampicin and CAMHB Mg2+ media by two fold broth microdilution checkerboard assay; format: functional
Pseudomonas aeruginosa [11] = experiment: Antibiotic adjuvant activity against multi-drug resistant Pseudomonas aeruginosa clinical isolate PA264 assessed as fold potentiation incubated for 18 hrs in presence of doxycycline by two fold broth microdilution checkerboard assay; format: functional
Acinetobacter baumannii [12] = experiment: Antibiotic adjuvant activity against multi-drug resistant Acinetobacter baumannii clinical isolate 92247 assessed as fractional inhibitory concentration index incubated for 18 hrs in presence of Rifampicin by two fold broth microdilution checkerboard assay; format: functional
Escherichia coli [13] = experiment: Antibiotic adjuvant activity against multi-drug resistant Escherichia coli clinical isolate 94474 assessed as rifampicin MIC incubated for 18 hrs in presence of Rifampicin by two fold broth microdilution checkerboard assay; format: functional
Acinetobacter baumannii [14] = experiment: Antibiotic adjuvant activity against Acinetobacter baumannii ATCC 17978 at 8 to 11 ug/ml incubated for 18 hrs in presence of rifampicin and 10 % FBS media by two fold broth microdilution checkerboard assay; format: functional, organism-based; settings: dose 8-11 µg/ml
Pseudomonas aeruginosa [15] = experiment: Antibiotic adjuvant activity against multi-drug resistant Pseudomonas aeruginosa clinical isolate PA262 assessed as doxycycline MIC incubated for 18 hrs in presence of doxycycline by two fold broth microdilution checkerboard assay; format: functional
Escherichia coli [16] = experiment: Antibiotic adjuvant activity against multi-drug resistant Escherichia coli clinical isolate EC94474 assessed as fold potentiation incubated for 18 hrs in presence of doxycycline by two fold broth microdilution checkerboard assay; format: functional
Pseudomonas aeruginosa [17] = experiment: Antibiotic adjuvant activity against multi-drug resistant Pseudomonas aeruginosa clinical isolate PA259 assessed as fractional inhibitory concentration index incubated for 18 hrs in presence of doxycycline by two fold broth microdilution checkerboard assay; format: functional
Pseudomonas aeruginosa [18] = experiment: Antibacterial activity against multi-drug resistant Pseudomonas aeruginosa clinical isolate PA114228 assessed as inhibition of bacterial growth incubated for 18 hrs by two fold broth microdilution assay; format: functional
Acinetobacter baumannii [19] = experiment: Antibiotic adjuvant activity against Acinetobacter baumannii ATCC 17978 assessed as fold increase in MIC incubated for 18 hrs in presence of rifampicin and CAMHB Mg2+ media by two fold broth microdilution checkerboard assay; format: functional
Pseudomonas aeruginosa [20] = experiment: Antibiotic adjuvant activity against multi-drug resistant Pseudomonas aeruginosa clinical isolate PA114228 assessed as fractional inhibitory concentration index incubated for 18 hrs in presence of minocycline by two fold broth microdilution checkerboard assay; format: functional
Enterococcus faecium = experiment: Antibiotic adjuvant activity against Enterococcus faecium 128149 assessed as fold potentiation incubated for 18 hrs in presence of rifampicin by two fold broth microdilution checkerboard assay; format: functional
Escherichia coli [21] = experiment: Antibacterial activity against multi-drug resistant Escherichia coli clinical isolate 94393 assessed as inhibition of bacterial growth incubated for 18 hrs by two fold broth microdilution assay; format: functional
Pseudomonas aeruginosa [22] = experiment: Antibiotic adjuvant activity against multi-drug resistant Pseudomonas aeruginosa clinical isolate PA259 assessed as fold potentiation incubated for 18 hrs in presence of doxycycline by two fold broth microdilution checkerboard assay; format: functional
Escherichia coli [23] = experiment: Antibiotic adjuvant activity against Escherichia coli ATCC 25922 assessed as novobiocin MIC incubated for 18 hrs in presence of novobiocin by two fold broth microdilution checkerboard assay; format: functional
Escherichia coli [24] = experiment: Antibiotic adjuvant activity against multi-drug resistant Escherichia coli clinical isolate 107115 assessed as inhibition of bacterial growth incubated for 18 hrs in presence of Rifampicin by two fold broth microdilution checkerboard assay; format: functional
Acinetobacter baumannii [25] = experiment: Antibiotic adjuvant activity against multi-drug resistant Acinetobacter baumannii clinical isolate 110193 assessed as inhibition of bacterial growth incubated for 18 hrs in presence of Rifampicin by two fold broth microdilution checkerboard assay; format: functional
Pseudomonas aeruginosa [26] = experiment: Antibiotic adjuvant activity against multi-drug resistant Pseudomonas aeruginosa clinical isolate PA101243 assessed as inhibition of bacterial growth incubated for 18 hrs in presence of minocycline by two fold broth microdilution checkerboard assay; format: functional
Pseudomonas aeruginosa [27] = experiment: Antibiotic adjuvant activity against Pseudomonas aeruginosa PAO1 assessed as fold increase in MIC incubated for 18 hrs in presence of rifampicin and CAMHB Mg2+ media by two fold broth microdilution checkerboard assay; format: functional
Pseudomonas aeruginosa [28] = experiment: Antibacterial activity against Pseudomonas aeruginosa PAO1 assessed as inhibition of bacterial growth incubated for 18 hrs by two fold broth microdilution assay; format: functional
Pseudomonas aeruginosa [29] = experiment: Antibiotic adjuvant activity against multi-drug resistant Pseudomonas aeruginosa clinical isolate PA264 assessed as fractional inhibitory concentration index incubated for 18 hrs in presence of doxycycline by two fold broth microdilution checkerboard assay; format: functional
Pseudomonas aeruginosa [30] = experiment: Antibiotic adjuvant activity against multi-drug resistant Pseudomonas aeruginosa clinical isolate PA101243 assessed as inhibition of bacterial growth incubated for 18 hrs in presence of doxycycline by two fold broth microdilution checkerboard assay; format: functional
Pseudomonas aeruginosa [31] = experiment: Antibiotic adjuvant activity against multi-drug resistant Pseudomonas aeruginosa clinical isolate PA259 assessed as fractional inhibitory concentration index incubated for 18 hrs in presence of Rifampicin by two fold broth microdilution checkerboard assay; format: functional
Pseudomonas aeruginosa [32] = experiment: Antibiotic adjuvant activity against multi-drug resistant Pseudomonas aeruginosa clinical isolate PA101243 assessed as fractional inhibitory concentration index incubated for 18 hrs in presence of doxycycline by two fold broth microdilution checkerboard assay; format: functional
Pseudomonas aeruginosa [33] = experiment: Antibiotic adjuvant activity against multi-drug resistant Pseudomonas aeruginosa clinical isolate PA262 assessed as inhibition of bacterial growth incubated for 18 hrs in presence of doxycycline by two fold broth microdilution checkerboard assay; format: functional
Pseudomonas aeruginosa [34] = experiment: Antibiotic adjuvant activity against multi-drug resistant Pseudomonas aeruginosa clinical isolate PA259 assessed as minocycline MIC incubated for 18 hrs in presence of minocycline by two fold broth microdilution checkerboard assay; format: functional

## Cl.NC[C@H]1O[C@H](O[C@H]2[C@H](OCc3ccccc3)[C@@H](O[C@H]3O[C@H](COCc4ccccc4)[C@@H](OCc4ccccc4)[C@H](N)[C@H]3OCc3ccccc3)[C@H](N)C[C@@H]2N)[C@H](N)C[C@@H]1OCc1ccccc1
Acinetobacter baumannii [1]
  fractional inhibitory concentration index (FICI): 0.125
Pseudomonas aeruginosa [2]
  fold change (FC): 1
Pseudomonas aeruginosa [3]
  MIC: 8 µg/mL
Escherichia coli [4]
  MIC: 32 µg/mL
Pseudomonas aeruginosa [5]
  fold change (FC): 1
Acinetobacter baumannii [6]
  MIC: 4 ng/mL
Pseudomonas aeruginosa [7]
  fold change (FC): 1
Pseudomonas aeruginosa [8]
  MIC: 8 µg/mL
Pseudomonas aeruginosa [9]
  fold change (FC): 1
Pseudomonas aeruginosa [10]
  fold change (FC): 1
Pseudomonas aeruginosa [11]
  fold change (FC): 1
Acinetobacter baumannii [12]
  fractional inhibitory concentration index (FICI): 0.252
Escherichia coli [13]
  MIC: 0.031 µg/mL
Acinetobacter baumannii [14]
  Activity: inactive
Pseudomonas aeruginosa [15]
  MIC: 512 µg/mL
Escherichia coli [16]
  fold change (FC): 8
Pseudomonas aeruginosa [17]
  fractional inhibitory concentration index (FICI): 1.063
Pseudomonas aeruginosa [18]
  MIC: 64 µg/mL
Acinetobacter baumannii [19]
  fold change (FC): >=2
Pseudomonas aeruginosa [20]
  fractional inhibitory concentration index (FICI): 1.063
Enterococcus faecium
  fold change (FC): 1
Escherichia coli [21]
  MIC: 32 µg/mL
Pseudomonas aeruginosa [22]
  fold change (FC): 1
Escherichia coli [23]
  MIC: 0.125 µg/mL
Escherichia coli [24]
  MIC: 2 µg/mL
Acinetobacter baumannii [25]
  MIC: 8 µg/mL
Pseudomonas aeruginosa [26]
  MIC: 8 µg/mL
Pseudomonas aeruginosa [27]
  fold change (FC): >=2
Pseudomonas aeruginosa [28]
  MIC: 64 µg/mL
Pseudomonas aeruginosa [29]
  fractional inhibitory concentration index (FICI): 1.063
Pseudomonas aeruginosa [30]
  MIC: 8 µg/mL
Pseudomonas aeruginosa [31]
  fractional inhibitory concentration index (FICI): 1.063
Pseudomonas aeruginosa [32]
  fractional inhibitory concentration index (FICI): 1.063
Pseudomonas aeruginosa [33]
  MIC: 8 µg/mL
Pseudomonas aeruginosa [34]
  MIC: 128 µg/mL
